Assays:
Format in all cases: biochemical
[1] = molecular target: T1, human Yes1 enzyme (Homo sapiens, UniProt P07947); assay: Yes1 enzyme inhibitory activity (time-resolved fluorometry, biotinylated peptide phosphorylation); conditions: read-out: YES_IC50
T1 construct: made in house
Outline: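 Inhibition was expressed against a compound-free control to give IC50, using TR-FRET read-out (Eu-cryptate anti-pTyr antibody, streptavidin-XL665).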

[2] = molecular target: T2, human Lck enzyme (Homo sapiens, UniProt P06239); assay: Lck enzyme inhibitory activity (time-resolved fluorometry, biotinylated peptide phosphorylation); conditions: read-out: LCK_IC50
T2 construct: purchased Carna Biosciences, Inc. 08-170
Outline: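 Readout pairs a europium cryptate-labelled anti-phosphotyrosine antibody with XL665-streptavidin, measured by time-resolved fluorescence. IC50 derived from percent inhibition against untreated controls.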

[3] = molecular target: T3, human Src enzyme (Homo sapiens, UniProt P12931); assay: Src enzyme inhibitory activity (time-resolved fluorometry, biotinylated peptide phosphorylation); conditions: read-out: SRC_IC50
T3 construct: purchased Carna Biosciences, Inc. 08-173
Outline: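 Compounds were tested for blocking tyrosine phosphorylation of a biotinylated peptide substrate by recombinant human Src. Phosphorylated product was quantified by time-resolved fluorometry using europium cryptate and XL665 conjugates, and IC50 was calculated against the compound-free control.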

T2 sequence (P06239 whole entry): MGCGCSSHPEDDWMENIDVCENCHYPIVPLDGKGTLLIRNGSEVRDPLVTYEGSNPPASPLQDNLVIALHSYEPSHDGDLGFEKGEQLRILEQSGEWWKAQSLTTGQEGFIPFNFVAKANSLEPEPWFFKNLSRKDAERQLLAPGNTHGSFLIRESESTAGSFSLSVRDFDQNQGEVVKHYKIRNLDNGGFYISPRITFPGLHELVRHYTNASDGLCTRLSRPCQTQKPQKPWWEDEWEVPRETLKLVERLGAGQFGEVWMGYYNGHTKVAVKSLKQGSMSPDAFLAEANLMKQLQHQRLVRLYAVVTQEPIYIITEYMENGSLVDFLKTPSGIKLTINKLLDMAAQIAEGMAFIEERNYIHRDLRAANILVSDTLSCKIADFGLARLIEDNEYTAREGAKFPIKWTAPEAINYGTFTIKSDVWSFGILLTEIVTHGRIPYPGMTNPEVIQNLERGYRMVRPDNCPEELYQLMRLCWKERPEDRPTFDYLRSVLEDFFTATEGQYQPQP
T3 sequence (P12931 whole entry): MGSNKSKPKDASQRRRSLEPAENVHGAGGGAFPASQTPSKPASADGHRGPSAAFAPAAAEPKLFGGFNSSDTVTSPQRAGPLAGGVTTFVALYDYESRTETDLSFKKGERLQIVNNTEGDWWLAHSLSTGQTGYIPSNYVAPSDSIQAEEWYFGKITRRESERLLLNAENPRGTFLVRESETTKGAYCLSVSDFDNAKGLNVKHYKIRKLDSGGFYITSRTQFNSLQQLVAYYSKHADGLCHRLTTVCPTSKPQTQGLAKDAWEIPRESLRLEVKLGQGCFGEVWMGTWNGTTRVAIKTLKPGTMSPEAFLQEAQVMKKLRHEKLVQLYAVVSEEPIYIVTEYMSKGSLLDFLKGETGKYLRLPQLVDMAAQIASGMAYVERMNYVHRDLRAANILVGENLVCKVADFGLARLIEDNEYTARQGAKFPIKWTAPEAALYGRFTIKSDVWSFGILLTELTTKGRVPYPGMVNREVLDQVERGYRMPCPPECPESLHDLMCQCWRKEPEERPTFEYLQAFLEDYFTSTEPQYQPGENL
T1 sequence (P07947 whole entry): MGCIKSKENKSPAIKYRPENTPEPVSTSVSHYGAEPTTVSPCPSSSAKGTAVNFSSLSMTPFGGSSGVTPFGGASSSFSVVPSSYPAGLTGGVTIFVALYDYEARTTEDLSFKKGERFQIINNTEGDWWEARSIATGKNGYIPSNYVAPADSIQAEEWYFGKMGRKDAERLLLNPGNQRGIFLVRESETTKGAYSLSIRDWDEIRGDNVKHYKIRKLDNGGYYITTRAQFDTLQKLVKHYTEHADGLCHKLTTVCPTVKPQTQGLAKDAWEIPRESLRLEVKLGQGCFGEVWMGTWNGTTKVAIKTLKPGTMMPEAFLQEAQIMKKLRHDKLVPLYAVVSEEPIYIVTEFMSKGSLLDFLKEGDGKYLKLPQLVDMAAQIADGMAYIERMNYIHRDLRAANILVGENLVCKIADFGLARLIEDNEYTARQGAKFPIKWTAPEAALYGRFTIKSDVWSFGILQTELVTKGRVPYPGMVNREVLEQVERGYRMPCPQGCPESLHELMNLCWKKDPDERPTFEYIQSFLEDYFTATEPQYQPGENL

| SMILES | IC50 [1] | IC50 [2] | IC50 [3] |
| --- | --- | --- | --- |
| Cc1cc(Oc2ccccc2F)ccc1-n1ncc(C(=O)c2cc3cc(F)c(NC4CCN(S(C)(=O)=O)CC4)cc3[nH]2)c1N [Example 5-1-135, [5-amino-1-[4-(2-fluorophenoxy)-2-methylphenyl]pyrazol-4-yl]-[5-fluoro-6-[(1-methylsulfonylpiperidin-4-yl)amino]-1H-indol-2-yl]methanone] | 0.84 nM | 5.3 nM | 12 nM |
| Cc1cc2cc(C(=O)c3cnn(-c4cnc(Oc5c(F)cccc5F)cc4C)c3N)[nH]c2cc1NS(=O)(=O)CC(=O)NC(C)C [Example 5-1-136, 2-[[2-[5-amino-1-[6-(2,6-difluorophenoxy)-4-methylpyridin-3-yl]pyrazole-4-carbonyl]-5-methyl-1H-indol-6-yl]sulfamoyl]-N-propan-2-ylacetamide] | 1.5 nM | 23 nM | 27 nM |
| COc1cc2cc(C(=O)c3cnn(-c4c(C)cc(Oc5ccccc5F)cc4F)c3N)[nH]c2cc1NS(=O)(=O)CC(=O)NC(C)C [Example 5-1-137, 2-[[2-[5-amino-1-[2-fluoro-4-(2-fluorophenoxy)-6-methylphenyl]pyrazole-4-carbonyl]-5-methoxy-1H-indol-6-yl]sulfamoyl]-N-propan-2-ylacetamide] | 1.3 nM | 29 nM | 41 nM |
| CC(=O)N1CCC(c2cc3[nH]c(C(=O)c4cnn(-c5c(C)cc(Oc6ccccc6F)cc5F)c4N)cc3cc2C)CC1 [Example 5-1-138, 1-[4-[2-[5-amino-1-[2-fluoro-4-(2-fluorophenoxy)-6-methylphenyl]pyrazole-4-carbonyl]-5-methyl-1H-indol-6-yl]piperidin-1-yl] ethanone] | 3.1 nM | 42 nM | 68 nM |
| CC(=O)N1CCC(c2cc3[nH]c(C(=O)c4cnn(-c5cnc(Oc6c(F)cccc6F)cc5C)c4N)cc3cc2C)CC1 [Example 5-1-139, 1-[4-[2-[5-amino-1-[6-(2,6-difluorophenoxy)-4-methylpyridin-3-yl]pyrazole-4-carbonyl]-5-methyl-1H-indol-6-yl]piperidin-1-yl]ethanone] | 1.8 nM | 25 nM | 23 nM |
| Cc1cc2cc(C(=O)c3cnn(-c4c(C)cc(Oc5c(F)cccc5F)cc4F)c3N)[nH]c2cc1NS(C)(=O)=O [Example 5-1-140, N-[2-[5-amino-1-[4-(2,6-difluorophenoxy)-2-fluoro-6-methylphenyl]pyrazole-4-carbonyl]-5-methyl-1H-indol-6-yl]methanesulfonamide] | 2.8 nM | 24 nM | 48 nM |
| CCc1cc2cc(C(=O)c3cnn(-c4cnc(Oc5c(F)cccc5F)cc4C)c3N)[nH]c2cc1NS(C)(=O)=O [Example 5-1-141, N-[2-[5-amino-1-[6-(2,6-difluorophenoxy)-4-methylpyridin-3-yl]pyrazole-4-carbonyl]-5-ethyl-1H-indol-6-yl]methanesulfonamide] | 2.4 nM | 27 nM | 75 nM |
| Cc1cc2cc(C(=O)c3cnn(-c4c(C)cc(Oc5c(F)cccc5Cl)cc4F)c3N)[nH]c2cc1NS(C)(=O)=O [Example 5-1-142, N-[2-[5-amino-1-[4-(2-chloro-6-fluorophenoxy)-2-fluoro-6-methylphenyl]pyrazole-4-carbonyl]-5-methyl-1H-indol-6-yl] methanesulfonamide] | 5.6 nM | 52 nM | 99 nM |
| COc1cc2cc(C(=O)c3cnn(-c4cnc(Oc5c(F)cccc5F)cc4C)c3N)[nH]c2cc1NS(=O)(=O)CC(=O)N1CCOCC1 [Example 5-1-143, N-[2-[5-amino-1-[6-(2,6-difluorophenoxy)-4-methylpyridin-3-yl]pyrazole-4-carbonyl]-5-methoxy-1H-indol-6-yl]-2-morpholin-4-yl-2-oxoethanesulfonamide] | 0.59 nM | 11 nM | 15 nM |
| Cc1cc2cc(C(=O)c3cnn(-c4cnc(Oc5c(F)cccc5F)cc4C)c3N)[nH]c2cc1C1CCN(S(=O)(=O)C2CC2)CC1 [Example 5-1-144, [5-amino-1-[6-(2,6-difluorophenoxy)-4-methylpyridin-3-yl]pyrazol-4-yl]-[6-(1-cyclopropylsulfonylpiperidin-4-yl)-5-methyl-1H-indol-2-yl]methanone] | 5.7 nM | 76 nM | 81 nM |
| COc1cc2cc(C(=O)c3cnn(-c4cnc(Oc5ccccc5F)cc4C)c3N)[nH]c2cc1Br [Example 5-1-145, [5-amino-1-[6-(2-fluorophenoxy)-4-methylpyridin-3-yl]pyrazol-4-yl]-(6-bromo-5-methoxy-1H-indol-2-yl)methanone] | 1.6 nM | 8.2 nM | 16 nM |
| Cc1cc(Oc2ccccc2F)ccc1-n1ncc(C(=O)c2cc3cc(OC4CCN(C(C)C)CC4)c(Br)cc3[nH]2)c1N [Example 5-1-146, [5-amino-1-[4-(2-fluorophenoxy)-2-methylphenyl]pyrazol-4-yl]-[6-bromo-5-(1-propan-2-ylpiperidin-4-yl)oxy-1H-indol-2-yl] methanone] | 0.27 nM | 5.3 nM | 2.2 nM |
| Cc1cc(Oc2ccccc2F)ccc1-n1ncc(C(=O)c2cc3cc(N4CCOCC4)c(Br)cc3[nH]2)c1N [Example 5-1-147, [5-amino-1-[4-(2-fluorophenoxy)-2-methylphenyl]pyrazol-4-yl]-(6-bromo-5-morpholin-4-yl-1H-indol-2-yl)methanone] | 0.57 nM | 12 nM | 5.1 nM |
| Cc1cc(-n2ncc(C(=O)c3cc4cc(OC5CCN(C(C)C)CC5)c(Br)cc4[nH]3)c2N)ccc1Oc1ccccc1F [Example 5-1-148, [5-amino-1-[4-(2-fluorophenoxy)-3-methylphenyl]pyrazol-4-yl]-[6-bromo-5-(1-propan-2-ylpiperidin-4-yl)oxy-1H-indol-2-yl] methanone] | 0.57 nM | 47 nM | 180 nM |
| Cc1cc(Oc2c(F)cccc2F)ncc1-n1ncc(C(=O)c2cc3cc(OC(F)F)c(Br)cc3[nH]2)c1N [Example 5-1-149, [5-amino-1-[6-(2,6-difluorophenoxy)-4-methylpyridin-3-yl]pyrazol-4-yl]-[6-bromo-5-(difluoromethoxy)-1H-indol-2-yl]methanone] | 5 nM | 43 nM | 57 nM |
| Cc1cc(-n2ncc(C(=O)c3cc4cc(N5CCOCC5)c(Br)cc4[nH]3)c2N)ccc1Oc1ccccc1F [Example 5-1-151, [5-amino-1-[4-(2-fluorophenoxy)-3-methylphenyl]pyrazol-4-yl]-(6-bromo-5-morpholin-4-yl-1H-indol-2-yl)methanone] | 2.9 nM | 80 nM | 600 nM |
| Cc1cc(Oc2ccccc2F)ncc1-n1ncc(C(=O)c2cc3cc(OC4CCN(C(C)C)CC4)c(Br)cc3[nH]2)c1N [Example 5-1-153, [5-amino-1-[6-(2-fluorophenoxy)-4-methylpyridin-3-yl]pyrazol-4-yl]-[6-bromo-5-(1-propan-2-ylpiperidin-4-yl)oxy-1H-indol-2-yl] methanone] | 0.53 nM | 3 nM | 7.9 nM |
| Cc1cc(Oc2ccccc2F)cc(F)c1-n1ncc(C(=O)c2cc3cc(OC4CCN(C(C)C)CC4)c(Br)cc3[nH]2)c1N [Example 5-1-154, [5-amino-1-[2-fluoro-4-(2-fluorophenoxy)-6-methylphenyl]pyrazol-4-yl]-[6-bromo-5-(1-propan-2-ylpipendin-4-yl)oxy-1H-indol-2-yl] methanone] | 0.67 nM | 4.3 nM | 11 nM |
